Data reported in patent publication US10792255B2, “Reconstituted apolipoprotein B lipoparticle, a preparation method and uses thereof” (National Chiao Tung University, priority 2013, dated 2020).

Key:
A549 cells = test: Functional test of M4N@rABL (cell viability, trypan blue); type: cell-based; conditions: 100 μM M4N (20 μg/ml rABL), 24 hrs treatment then 48 hrs culture
Source text: After removing the medium, the cells were washed twice with PBS and cultured with serum-containing medium for 48 hrs. The cell viability was observed by a trypan blue staining.

mice = conditions: long-term feeding; cited from earlier work

COc1ccc(C[C@@H](C)[C@@H](C)Cc2ccc(OC)c(OC)c2)cc1OC [M4N, tetra-O-methyl nordihydroguaiaretic acid]
cell viability (A549 cells): 40% | weight changes or mortality (mice): not found any obvious weight changes or mortality
